These results are taken from ChEMBL document CHEMBL1681652, “Synthesis and evaluation of 2-phenyl-1,4-butanediamine-based CCR5 antagonists for the treatment of HIV-1” (Bioorg Med Chem Lett, 2011).

Series [1] concerns Human immunodeficiency virus 1. Description: Antiviral activity against HIV1 Ba-L infected in human HOS cells expressing CCR5 after 4 days. It is filed as functional, organism-based.
Series [2] has as its system Human immunodeficiency virus 1. Nature of the series: Antiviral activity against HIV1 Ba-L infected in human PBL cells assessed as reverse transcriptase activity after 7 days. It is filed as functional, organism-based. Conditions: Human immunodeficiency virus 1, Ba-L, 168 h.
Series [3] can be described thus: Oral bioavailability in Sprague-Dawley rat at 1 mg/kg. Conditions: in vivo. It is filed as ADME, organism-based.
The test system of a further series is Rattus norvegicus. Nature of the series: AUC in Sprague-Dawley rat at 1 mg/kg, iv and po. Conditions: in vivo. It is filed as ADME, organism-based, Plasma. Also on record: dose 1 mg/kg, route oral; unit not given here.
The nature of series [4]: Half life in human hepatocytes. Format: ADME, cell-based, Liver, Hepatocyte.
Series [5] is described as follows: Half life in rat hepatocytes. It is filed as ADME, cell-based, Liver, Hepatocyte.
Series [6] is described as follows: Apparent permeability across MDCK cells. Conditions: dog. It is filed as ADME, cell-based, Canis lupus familiaris.
For series [7], the target named is Voltage-gated inwardly rectifying potassium channel KCNH2 (Homo sapiens, UniProt Q12809). Nature of the series: Displacement of labeled dofetilide from human ERG.
Sequence of Voltage-gated inwardly rectifying potassium channel KCNH2 (Q12809 whole entry): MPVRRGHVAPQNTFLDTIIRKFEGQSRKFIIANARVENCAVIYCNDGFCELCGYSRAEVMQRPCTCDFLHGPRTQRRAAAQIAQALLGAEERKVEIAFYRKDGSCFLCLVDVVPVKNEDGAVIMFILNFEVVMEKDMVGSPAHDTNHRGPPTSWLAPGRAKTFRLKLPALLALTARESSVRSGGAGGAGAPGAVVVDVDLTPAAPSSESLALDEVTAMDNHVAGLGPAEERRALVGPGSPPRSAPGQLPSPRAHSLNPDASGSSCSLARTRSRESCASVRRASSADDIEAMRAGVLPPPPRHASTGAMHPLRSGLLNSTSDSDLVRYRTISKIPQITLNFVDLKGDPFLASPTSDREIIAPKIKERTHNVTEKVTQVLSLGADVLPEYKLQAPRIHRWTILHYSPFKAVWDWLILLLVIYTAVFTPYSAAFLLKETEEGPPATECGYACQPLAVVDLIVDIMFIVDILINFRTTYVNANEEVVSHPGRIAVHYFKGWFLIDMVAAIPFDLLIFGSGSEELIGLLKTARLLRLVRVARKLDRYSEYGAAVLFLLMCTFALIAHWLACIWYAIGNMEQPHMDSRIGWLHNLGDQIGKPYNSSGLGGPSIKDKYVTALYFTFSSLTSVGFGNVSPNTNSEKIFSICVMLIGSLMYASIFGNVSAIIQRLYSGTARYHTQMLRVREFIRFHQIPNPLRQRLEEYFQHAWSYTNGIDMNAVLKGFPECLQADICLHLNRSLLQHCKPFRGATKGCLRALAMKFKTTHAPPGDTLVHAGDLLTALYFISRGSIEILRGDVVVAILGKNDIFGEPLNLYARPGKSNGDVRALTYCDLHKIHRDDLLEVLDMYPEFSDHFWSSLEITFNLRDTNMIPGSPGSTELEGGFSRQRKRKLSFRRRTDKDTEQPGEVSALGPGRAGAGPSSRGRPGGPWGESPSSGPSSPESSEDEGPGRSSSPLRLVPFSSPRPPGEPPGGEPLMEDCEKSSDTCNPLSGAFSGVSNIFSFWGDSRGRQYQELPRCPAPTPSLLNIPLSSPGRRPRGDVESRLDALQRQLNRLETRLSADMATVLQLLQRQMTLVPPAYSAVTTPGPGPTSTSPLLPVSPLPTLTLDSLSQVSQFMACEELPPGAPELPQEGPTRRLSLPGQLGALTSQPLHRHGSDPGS
The mark [8] stands for this setting: Human immunodeficiency virus 1, Ba-L, HOS, 96 h.

With `Cc1nnc(-c2ccccc2)n1C1CCN(CCC(CNS(=O)(=O)c2ccccc2)c2ccccc2)CC1` (racemic), the half-maximal inhibitory concentration (IC50) in series [1] (setting [8]) was 5020 nM. On to `COP(=O)(NCC(CCN1C2CCC1CC(n1c(C)nc3ccccc31)C2)c1ccccc1)OC` (racemic), for which the half-maximal inhibitory concentration (IC50) in series [1] (setting [8]) was found to be 77 nM. On the same count and under the same terms, under `Cc1nc2ccccc2n1[C@H]1C[C@H]2CC[C@@H](C1)N2CCC(C)(CN(C)C(=O)C1CCC(F)(F)CC1)c1ccccc1` (mixture of isomers) stands 235 nM.

For `CC(=O)N1CCc2nc(C)n([C@H]3C[C@H]4CC[C@@H](C3)N4CCC(CNS(=O)(=O)c3ccccc3)c3ccccc3)c2C1` (mixture of isomers), the results for the IC50 in series [1] (setting [8]) and in series [2] were 3 nM and 1 nM, respectively. The compound further gave a bioavailability in series [3] of under 1%. The AUC with Rattus norvegicus was found to be 0. Besides, the half-life in series [4] and in series [5] was at most 20 min in each case. The compound `Cc1nnc(C(C)C)n1[C@H]1C[C@H]2CC[C@@H](C1)N2CCC(CNS(=O)(=O)c1ccccc1)c1ccccc1` (racemic; 14b) registered an IC50 in series [1] (hos) of 146 nM. `CC(=O)NCC(CCN1C2CCC1CC(n1c(C)nc3ccccc31)C2)c1ccccc1` (racemic): the IC50 in series [1] (setting [8]) was 866 nM.

In the case of `Cc1nc2ccccc2n1C1CC2CCC(C1)N2CCC(CNS(=O)(=O)c1cccc(C(N)=O)c1)c1ccccc1` (racemic), the half-maximal inhibitory concentration (IC50) was 16 nM in series [1] (setting [8]) and 161 nM in series [2].

For `Cc1nc2ccccc2n1C1CC2CCC(C1)N2CCC(CNS(=O)(=O)c1ccccc1)c1ccccc1` (racemic), the figures for the half-maximal inhibitory concentration (IC50) in series [1] (setting [8]) and in series [2] were 65 nM and 112 nM, respectively. `Cc1nc2ccccc2n1C1CC2CCC(C1)N2CCC(CN(C)C(=O)C1CCC(F)(F)CC1)c1ccccc1` (racemic) yielded an IC50 in series [1] (setting [8]) of 520 nM. Compound `Cc1nc2ccccc2n1[C@@H]1C[C@H]2CC[C@@H](C1)N2CCC(CNS(=O)(=O)c1ccccc1)c1ccccc1` (mixture of isomers) displayed a 50% inhibitory concentration (IC50) in series [1] (setting [8]) of 117 nM. The compound `Cc1nc2ccccc2n1[C@H]1C[C@H]2CC[C@@H](C1)N2CCC(C)(CNS(=O)(=O)c1ccccc1)c1ccccc1` (mixture of isomers) showed an IC50 in series [1] (setting [8]) of 124 nM. Turning to `Cc1nc2ccccc2n1C1CC2CCC(C1)N2CCC(CNS(C)(=O)=O)c1ccccc1` (racemic), the figures for the 50% inhibitory concentration (IC50) in series [1] (setting [8]) and in series [2] were 23 nM and 99 nM, respectively. For the compound `Cc1nc2ccccc2n1[C@H]1C[C@H]2CC[C@@H](C1)N2CCC(C)(CN(C)S(=O)(=O)c1ccccc1)c1ccccc1` (mixture of isomers), the values for the IC50 in series [1] (setting [8]) and in series [2] were 9 nM and 1 nM, respectively. This compound also registered a bioavailability in series [3] of under 1%. This compound came in with an AUC in the series with Rattus norvegicus of 0. Besides, the Papp in series [6] was determined as 7 ×10⁻⁶ cm/s. Moreover, the half-life in series [4] and in series [5] was at most 20 min in each case. Take `Cc1nnc(C(C)C)n1[C@H]1C[C@H]2CC[C@@H](C1)N2CCC(CNC(=O)C1CCC(F)(F)CC1)c1ccccc1` (mixture of isomers) [listing 1 of 2 here]: the IC50 in series [1] (hos) is 9740 nM.

In series [1] (setting [8]), `Cc1nc2ccccc2n1C1CC2CCC(C1)N2CCC(CNC(=O)C1CCC(F)(F)CC1)c1ccccc1` (racemic) showed a half-inhibitory concentration (IC50) of 411 nM.

On to `Cc1nnc(C(C)C)n1C1CCN(CCC(CNS(=O)(=O)c2ccccc2)c2ccccc2)CC1` (racemic), for which, in series [1] (setting [8]), half-maximal inhibition (IC50) required 989 nM. Same read-out and setting: the same measure for `Cc1nnc(C(C)C)n1[C@@H]1C[C@H]2CC[C@@H](C1)N2CCC(C)(CNC(=O)C1CCC(F)(F)CC1)c1ccccc1` (mixture of isomers): 583 nM. On the same count and under the same terms, the same measure for `Cc1nnc(C(C)C)n1[C@@H]1C[C@H]2CC[C@@H](C1)N2CCC(C)(CNS(=O)(=O)c1ccccc1)c1ccccc1` (mixture of isomers): 578 nM. As for `Cc1nnc(C(C)C)n1[C@H]1C[C@H]2CC[C@@H](C1)N2CCC(CNC(=O)C1CC(F)(F)C1)c1ccccc1` (mixture of isomers), the half-maximal inhibitory concentration (IC50) in series [1] (setting [8]) was over 20000 nM. `Cc1nnc(C(C)C)n1[C@H]1C[C@H]2CC[C@@H](C1)N2CCC(CNC(=O)C1CCC(F)(F)CC1)c1ccccc1` (mixture of isomers) [listing 2 of 2 here]: the half-inhibitory concentration (IC50) in series [1] (hos) is 866 nM; in series [7], at least 10000 nM. For the compound `CCc1nc(Cc2ccccc2)cn1C1CCN(CCC(CNS(=O)(=O)c2ccccc2)c2ccccc2)CC1` (racemic), the values for the half-inhibitory concentration (IC50) in series [1] (setting [8]) and in series [2] were 45 nM and 43 nM, respectively. In turn, `Cn1nc(Cc2ccccc2)cc1C1CCN(CCC(CNS(=O)(=O)c2ccccc2)c2ccccc2)CC1` (racemic) returned an IC50 in series [1] (setting [8]) of 88 nM. With `Cc1cc(OS(=O)(=O)c2ccccc2)cc(C)c1C(=O)N1C[C@H]2CN(CCC(CNS(=O)(=O)c3ccccc3)c3ccccc3)C[C@H]2C1` (mixture of isomers), the IC50 in series [1] (setting [8]) amounted to 8 nM; in series [2], 1 nM. In series [3], this compound yielded a bioavailability of 2%. The compound also had an AUC in the series with Rattus norvegicus of 10. For the same compound, the half-life in series [4] and in series [5] was at most 20 min in each case. On to `Cc1nc2ccccc2n1C1CC2CCC(C1)N2CCC(CN(C)S(=O)(=O)c1ccccc1)c1ccccc1` (racemic), for which the concentration for half-maximal inhibition (IC50) in series [1] (setting [8]) was 8 nM; in series [2], 60 nM. The same compound returned a bioavailability in series [3] of 5%. This compound yielded an AUC in the series on Rattus norvegicus of 40. Further, the half-life in series [4] and in series [5] was at most 20 min each time.

Take `Cc1nnc(C(C)C)n1[C@H]1C[C@H]2CC[C@@H](C1)N2CCC(CNC(=O)c1ccccc1)c1ccccc1` (mixture of isomers): the values for the IC50 in series [1] (setting [8]) and in series [7] were over 20000 nM and at least 10000 nM, respectively. As to `Cc1nc2ccncc2n1[C@H]1C[C@H]2CC[C@@H](C1)N2CCC(CNS(=O)(=O)c1ccccc1)c1ccccc1` (mixture of isomers), the 50% inhibitory concentration (IC50) in series [1] (setting [8]) turned out to be 38 nM.

In the case of `Cc1nc2ccccc2n1[C@H]1C[C@H]2CC[C@@H](C1)N2CCC(C)(CNC(=O)C1CCC(F)(F)CC1)c1ccccc1` (mixture of isomers), in series [1] (setting [8]), half-maximal inhibition (IC50) required 249 nM. On the same count and under the same terms, under `Cc1nc2ccccc2n1C1CC2CCC(C1)N2CCC(CNS(=O)(=O)N1CCOCC1)c1ccccc1` (racemic) stands 13 nM; under `Cc1nc2ccccc2n1C1CCN(CCC(CNS(=O)(=O)c2ccccc2)c2ccccc2)CC1` (racemic), 362 nM.

For the compound `Cc1nnc(C(C)C)n1[C@H]1C[C@H]2CC[C@@H](C1)N2CCC(CNS(=O)(=O)c1ccccc1)c1ccccc1` (racemic; 14a), the IC50 was 480 nM in series [1] (hos) and at least 10000 nM in series [7].
